Data published in patent US7071195B2, “Amine and amide derivatives as ligands for the neuropeptide Y Y5 receptor useful in the treatment of obesity and other disorders” (Ortho-McNeil Pharmaceutical, Inc., priority 1999, dated 2006).
Where a name gives a salt, the structure may show the parent alone.

Target: T1, human neuropeptide Y5 receptor (Homo sapiens, UniProt Q15761)
T1 construct: expressed in transfected cells; host or cells: HEK-293 (stably transfected, G-418 selected); membranes
T1 sequence (Q15761 1-445): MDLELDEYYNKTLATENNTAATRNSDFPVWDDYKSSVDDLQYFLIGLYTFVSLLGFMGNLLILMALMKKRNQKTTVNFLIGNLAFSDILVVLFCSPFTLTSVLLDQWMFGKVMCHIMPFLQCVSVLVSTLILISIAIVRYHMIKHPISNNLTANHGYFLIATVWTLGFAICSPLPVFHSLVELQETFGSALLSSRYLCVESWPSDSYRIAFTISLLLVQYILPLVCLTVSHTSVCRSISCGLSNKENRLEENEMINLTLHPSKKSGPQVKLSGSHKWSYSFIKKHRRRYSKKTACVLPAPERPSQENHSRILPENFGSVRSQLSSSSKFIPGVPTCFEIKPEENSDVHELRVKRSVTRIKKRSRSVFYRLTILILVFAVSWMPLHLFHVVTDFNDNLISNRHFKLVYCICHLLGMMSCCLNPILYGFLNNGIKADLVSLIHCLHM
Assay: NPY5 HTS centrifugation assay: competition with 125I-PYY for binding to membranes of NPY5-transfected HEK293 cells
Details: 80 pM 125I-PYY, 1 hr room temperature; for inhibition at 0.3 µM / % Inh @ 300 nM (% Inhibition of 125I-PYY Binding): 300 nM compound; for inhibition at 0.3 µM: read-out: % Inh @ 300 nM (% Inhibition of 125I-PYY Binding); for inhibition at 3 µM / % Inh @ 3 uM (% Inhibition of 125I-PYY Binding): 3 uM compound; for inhibition at 3 µM: read-out: % Inh @ 3 uM (% Inhibition of 125I-PYY Binding)
Description: The compounds described in this invention were evaluated for binding to the human neuropeptide Y5 receptor.
Stably transfected cells served as the source for the membranes for the NPY5 receptor binding assay.
NPY5-transfected HEK293 cells were grown to confluence in 150 cm^2 culture dishes. […] Cells were then incubated in phosphate-buffered saline without Calcium and without Magnesium, supplemented with 2 mM EDTA. Cells were incubated for 10 minutes at room temperature and the cells were collected by repetitive pipeting. Cells were formed into pellets and then frozen at −80 until needed. Frozen pellets were homogenized with a polytron at full speed for 12 seconds in a homogenization buffer (20 mM Tris HCl, 5 mM EDTA, pH 7.4). Homogenates were centrifuged for 5 minutes at 4 C at 200 g. Supernatants were transferred to corex tubes and centrifuged for 25 minutes at 28,000 g. Pellets were re-suspended in Binding (20 mM HEPES, 10 mM NaCl, 0.22 mM KH2PO4, 1.3 mM CaCl2, 0.8 mM MgSO4, pH 7.4). Membranes were kept on ice until use.
Compounds to be tested were prepared as 10× stocks in binding buffer and added first to assay tubes (RIA vials, Sarstedt). […] To each tube is added 100 μL of membranes and the mixture is agitated by pipeting 2 times. Samples are incubated for 1 hr at room temperature. Aluminum cast plates (Sarstedt) containing the vials are then centrifuged 10 minutes at 3200 rpm in a Sorvall RT6000. Supernatant is then aspirated. To each vial 400 μL PBS is added and this is then aspirated again. Vials are then put in carrier polypropylene 12×75 tube and counted in gamma counter (Packard). Non-specific binding is determined in the presence of 300 nM NPY. […] These operations are known to those skilled in the art.

SMILES	inhibition at 0.3 µM [%]	inhibition at 3 µM [%]	% Inh @ 300 nM (% Inhibition of 125I-PYY Binding) [%]	% Inh @ 3 uM (% Inhibition of 125I-PYY Binding) [%]
COc1ccc2c(c1)CC[C@H](NC(=O)CN1CCC(n3c(=O)[nH]c4ccccc43)CC1)[C@@H]2Cc1cccnc1 (relative stereo) [Compound 19, 4-(2,3-Dihydro-2-oxo-1H-benzimidazol-1-yl)-N-[cis-1,2,3,4-tetrahydro-6-methoxy-1-(3-pyridinylmethyl)-2-naphthalenyl]-1-piperidineacetamide Bis-hydrochloride]	69	101		
CN(C)C(CCCCNS(=O)(=O)c1ccccc1)C(=O)NC1CCc2ccccc2C1Cc1cccnc1 (single isomer, unassigned) [Compound 43a]			84	93
CC(=O)C1(c2ccccc2)CCN(CC(=O)N[C@H]2CCc3ccccc3[C@H]2Cc2cccnc2)CC1 (relative stereo) [Compound 21, 4-Acetyl-4-phenyl-N-[cis-1,2,3,4-tetrahydro-1-(3-pyridinylmethyl)-2-naphthalenyl]-1-piperidineacetamide bis-hydrochloride]	83	98		
O=C(CN1CCC(n2c(=O)[nH]c3ccccc32)CC1)NCC(Cc1cccnc1)c1ccc(O)cc1 (stereo not drawn) [Compound 87]			97	96
CC(=O)NC(CCCCNS(=O)(=O)c1ccccc1)C(=O)NC1CCc2ccccc2C1Cc1cccnc1 (single isomer, unassigned) [Compound 38b]			89	101
O=C(CN1CCC2(CC1)C(=O)NCN2c1ccccc1)N[C@H]1CCc2ccccc2[C@H]1Cc1cccnc1 (relative stereo) [Compound 22, 4-Oxo-1-phenyl-N-[cis-1,2,3,4-tetrahydro-1-(3-pyridinylmethyl)-2-naphthalenyl]-1,3,8-triazaspiro[4.5]decane-8-acetamide bis-hydrochloride]	32	70		
O=C(CN1CCC(NS(=O)(=O)c2ccccc2F)CC1)NCC(Cc1cccnc1)c1ccc(F)cc1 (stereo not drawn) [Compound 30, N-[2-(4-Fluorophenyl)-3-(3-pyridinyl)propyl]-4-[(2-fluorophenylsulfonyl)amino]-1-piperidineacetamide bis-trifluoroacetate]	100	110		
O=C(CN1CCC(NC(=O)Nc2ccccc2)CC1)NC1CCc2ccccc2C1Cc1cccnc1 (stereo not drawn) [Compound 51]			85	102
COc1ccc(C(CNC(=O)CN2CCC(n3c(=O)[nH]c4ccccc43)CC2)Cc2cccnc2)cc1 (stereo not drawn) [Compound 86]			88	91
CCNC(=O)NC(CCCCNS(=O)(=O)c1ccccc1)C(=O)NC1CCc2ccccc2C1Cc1cccnc1 (mixture of isomers) [Compound 40]			21	92
O=C(CN1CCC(NC(=O)c2ccccc2)CC1)NCC(Cc1cccnc1)c1ccc(F)cc1 (stereo not drawn) [Compound 92]			92	104
O=C(Cc1ccccc1)NC1CCN(CC(=O)NC2CCc3cc(F)ccc3C2Cc2cccnc2)CC1 (stereo not drawn) [Compound 47]			91	98
O=C(CN1CCC(NS(=O)(=O)c2ccccc2)C1)NC1CCc2cc(F)ccc2C1Cc1cccnc1 (mixture of isomers) [Compound 58]			93	91
O=C(CN1CCC(NS(=O)(=O)c2ccccc2)CC1)NC1CCc2cc(F)ccc2C1Cc1cccnc1 (stereo not drawn) [Compound 48]			97	103
CC(C)(C)OC(=O)NC1CCN(CC(=O)NC2CCc3cc(F)ccc3C2Cc2cccnc2)C1 (mixture of isomers) [Compound 56]			88	94
